{
  "source": "patent US10039781B2",
  "about": "“Pulse inhalation of nitric oxide for treating respiratory diseases” (Advanced Inhalation Therapies (AIT) Ltd., priority 2015, dated 2018)",
  "key": {"P. aeruginosa (ATCC)": {"tested_on": "P. aeruginosa (ATCC)", "conditions": "200 ppm gNO until substantially eradicated; cited from earlier work"}, "S. maltophilia": {"tested_on": "S. maltophilia", "conditions": "200 ppm gNO until substantially eradicated; cited from earlier work"}, "Klebsiella sp.#2": {"tested_on": "Klebsiella sp.#2", "conditions": "200 ppm gNO until substantially eradicated; cited from earlier work"}, "Klebsiella sp. #3": {"tested_on": "Klebsiella sp. #3", "conditions": "200 ppm gNO until substantially eradicated; cited from earlier work"}, "[1]": {"test": "Prospective phase I open label safety study of inhaled 160 ppm gNO in healthy adults", "format": "in vivo, human", "conditions": "160 ppm gNO for 30 minutes, five times a day"}, "Candida albicans": {"tested_on": "Candida albicans", "conditions": "200 ppm gNO until substantially eradicated; cited from earlier work"}, "S. aureus (ATCC)": {"tested_on": "S. aureus (ATCC)", "conditions": "200 ppm gNO until substantially eradicated; cited from earlier work"}, "S. aureus (Clinical)": {"tested_on": "S. aureus (Clinical)", "conditions": "200 ppm gNO until substantially eradicated; cited from earlier work"}, "[2]": {"tested_on": "chronic, non-healing wound", "conditions": "topical 200 ppm gNO, cited from earlier work"}, "microorganisms": {"tested_on": "microorganisms", "test": "In vitro exposure to 200 ppm gNO, average over all microorganisms of Table 1", "format": "cell-based", "conditions": "average of the 15 microorganisms", "source_text": "In vitro studies of the antimicrobial and antiviral effect of gNO have shown that the viability and vitality of viruses, bacteria and fungi decreases to a point of substantial eradication after the pathogen has been exposed to a certain amount of nitric oxide over a certain period of time. This amount, which can be referred to as the effective amount, can be estimated in terms of the concentration of NO in the gas mixture contacted with the pathogen, times the duration of the exposure. For example, the effective amount can be estimated in units of ppm-time-hour, or ppm-hour. Table 1 presents experimental data gathered for microorganisms exposed to 200 ppm gNO until the microorganisms are substantially eradicated*."}, "[3]": {"tested_on": "Pseudomonas aeruginosa pneumonia", "conditions": "160 ppm gNO, intermittent 30 minute exposures, rat; cited from earlier work"}, "Serracia sp.": {"tested_on": "Serracia sp.", "conditions": "200 ppm gNO until substantially eradicated; cited from earlier work"}, "Acinetobader sp.": {"tested_on": "Acinetobader sp.", "conditions": "200 ppm gNO until substantially eradicated; cited from earlier work"}, "Klebsiella sp. #1": {"tested_on": "Klebsiella sp. #1", "conditions": "200 ppm gNO until substantially eradicated; cited from earlier work"}, "[4]": {"tested_on": "five planktonic species of methicillin resistant S. aureous (MRSA)", "conditions": "exposure to 1,600 ppm hours of gNO; cited from earlier work"}, "[5]": {"tested_on": "bovine respiratory disease", "conditions": "intermittent 30 minute exposures of gNO, cattle; cited from earlier work"}, "[6]": {"conditions": "healthy humans, cited from earlier work"}, "[7]": {"conditions": "cited from earlier work"}, "MRSA": {"tested_on": "MRSA", "conditions": "200 ppm gNO until substantially eradicated; cited from earlier work"}, "E. coli": {"tested_on": "E. coli", "conditions": "200 ppm gNO until substantially eradicated; cited from earlier work"}, "MRSA biofilm": {"tested_on": "MRSA biofilm", "conditions": "200 ppm gNO for eight hours (1,600 ppm hours); cited from earlier work"}, "[8]": {"conditions": "rats, gNO concentrations below 200 ppm, 6 hours/day for 28 days; cited from earlier work"}, "Enterobacter sp.": {"tested_on": "Enterobacter sp.", "conditions": "200 ppm gNO until substantially eradicated; cited from earlier work"}, "[9]": {"conditions": "rats, cited from earlier work"}, "Group B Streptococci": {"tested_on": "Group B Streptococci", "conditions": "200 ppm gNO until substantially eradicated; cited from earlier work"}, "Mycobacterium smegmatis": {"tested_on": "Mycobacterium smegmatis", "conditions": "200 ppm gNO until substantially eradicated; cited from earlier work"}, "[10]": {"conditions": "five consecutive days, healthy adults"}, "[11]": {"conditions": "400 ppm gNO, first day of exposure"}, "[12]": {"conditions": "500 ppm gNO, first day of exposure"}},
  "note": "Like-named read-outs stand apart in the source and are kept apart here.",
  "data": [
    {"smiles": "[N]=O", "note": "[gNO, nitric oxide]", "values": [
      {"measurement": "Effective amount in ppm-hour", "setting": "P. aeruginosa (ATCC)", "value": 600, "unit": "ppm-hour"},
      {"measurement": "Effective amount in ppm-hour", "setting": "S. maltophilia", "value": 800, "unit": "ppm-hour"},
      {"measurement": "Effective amount in ppm-hour", "setting": "Klebsiella sp.#2", "value": 1000, "unit": "ppm-hour"},
      {"measurement": "Effective amount in ppm-hour", "setting": "Klebsiella sp. #3", "value": 1200, "unit": "ppm-hour"},
      {"measurement": "Forced expiratory volume in 1 sec (FEV1) percentage and other lung function parameters", "setting": "[1]; [10]", "value": "improved"},
      {"measurement": "adverse events", "setting": "[1]; [10]", "value": "neither significant adverse events nor adverse events attributable to gNO inhalation occurred"},
      {"measurement": "methemoglobin levels", "setting": "[1]; [10]", "value": 0.9, "unit": "%"},
      {"measurement": "tolerability", "setting": "[1]; [10]", "value": "all individuals tolerated the gNO treatment courses well"},
      {"measurement": "serum nitrites/nitrates, prothrombin, pro-inflammatory cytokine and chemokine levels", "setting": "[1]; baseline versus day 5", "value": "did not differ between baseline and day 5"},
      {"measurement": "Effective amount in ppm-hour", "setting": "Candida albicans", "value": 800, "unit": "ppm-hour"},
      {"measurement": "Effective amount in ppm-hour", "setting": "S. aureus (ATCC)", "value": 800, "unit": "ppm-hour"},
      {"measurement": "Effective amount in ppm-hour", "setting": "S. aureus (Clinical)", "value": 800, "unit": "ppm-hour"},
      {"measurement": "wound size reduction", "setting": "[2]; at one week", "value": 42, "unit": "%"},
      {"measurement": "presence of biofilm", "setting": "[2]; within the first three days of treatment", "value": "no longer visibly present"},
      {"measurement": "Effective amount in ppm-hour, Average", "setting": "microorganisms", "value": 1013.33, "unit": "ppm-hour"},
      {"measurement": "pulmonary bioburden and leukocyte infiltration", "setting": "[3]", "value": "effective to reduce the pulmonary bioburden and leukocyte infiltration"},
      {"measurement": "Effective amount in ppm-hour", "setting": "Serracia sp.", "value": 1200, "unit": "ppm-hour"},
      {"measurement": "Effective amount in ppm-hour", "setting": "Acinetobader sp.", "value": 1200, "unit": "ppm-hour"},
      {"measurement": "Effective amount in ppm-hour", "setting": "Klebsiella sp. #1", "value": 1200, "unit": "ppm-hour"},
      {"measurement": "population of MRSA planktonic strains", "setting": "[4]", "value": "A reduction in the population of all five MRSA planktonic strains was observed"},
      {"measurement": "clinical symptoms of bovine respiratory disease", "setting": "[5]", "value": "shown to decrease the clinical symptoms"},
      {"measurement": "levels of MetHb", "setting": "[6]; inhalation of gNO at 128 ppm for 3 hours", "value": "> 5", "unit": "%"},
      {"measurement": "levels of MetHb", "setting": "[6]; inhalation of gNO at 512 ppm for 55 minutes", "value": "> 5", "unit": "%"},
      {"measurement": "half-life in the body", "setting": "[7]; in vivo", "value": "less than 6 seconds"},
      {"measurement": "radius of action from its site of origin", "setting": "[7]; in vivo", "value": "approximately 200 microns"},
      {"measurement": "nitrate excreted in the urine, share of the nitric oxide dose inhaled", "setting": "[7]; predominant metabolite nitrate", "value": "more than 70%"},
      {"measurement": "Effective amount in ppm-hour", "setting": "MRSA", "value": 1000, "unit": "ppm-hour"},
      {"measurement": "Effective amount in ppm-hour", "setting": "E. coli", "value": 1000, "unit": "ppm-hour"},
      {"measurement": "MRSA in biofilm", "setting": "MRSA biofilm", "value": "shown to reduce MRSA"},
      {"measurement": "mortality", "setting": "[8]", "value": "No deaths occurred"},
      {"measurement": "Effective amount in ppm-hour", "setting": "Enterobacter sp.", "value": 1200, "unit": "ppm-hour"},
      {"measurement": "mortality", "setting": "[9]; 300 ppm gNO, groups of 10 rats", "value": "Six of the animals treated with 300 ppm gNO died during the first 1-2 days"},
      {"measurement": "MetHb levels", "setting": "[9]; [11]", "value": 72.5, "unit": "percents"},
      {"measurement": "mortality", "setting": "[9]; [11]", "value": "all of the animals died"},
      {"measurement": "MetHb levels", "setting": "[9]; [12]", "value": 67, "unit": "percents"},
      {"measurement": "mortality", "setting": "[9]; [12]", "value": "all of the animals died"},
      {"measurement": "Effective amount in ppm-hour", "setting": "Group B Streptococci", "value": 400, "unit": "ppm-hour"},
      {"measurement": "Effective amount in ppm-hour", "setting": "Mycobacterium smegmatis", "value": 2000, "unit": "ppm-hour"}
    ]}
  ]
}
